Experiments:
Assay type in all cases: functional
[1] = system: NCI-H226; experiment: Growth inhibition of human NCI-H226 cells after 48 hrs by SRB staining method; details: NCI-H226, 48 h
[2] = system: NCI-H23; experiment: Growth inhibition of human NCI-H23 cells after 48 hrs by SRB staining method; details: NCI-H23, 48 h
[3] = system: NCI-H460; experiment: Growth inhibition of human NCI-H460 cells after 48 hrs by SRB staining method; details: NCI-H460, 48 h
[4] = system: COLO 205; experiment: Growth inhibition of human COLO205 cells after 48 hrs by SRB staining method; details: COLO 205, 48 h
[5] = system: HCT-15; experiment: Growth inhibition of human HCT15 cells after 48 hrs by SRB staining method; details: HCT-15, 48 h
[6] = system: SF-295; experiment: Growth inhibition of human SF295 cells after 48 hrs by SRB staining method; details: SF-295, 48 h
[7] = system: SNB-19; experiment: Growth inhibition of human SNB19 cells after 48 hrs by SRB staining method; details: SNB-19, 48 h
[8] = system: U-251; experiment: Growth inhibition of human U251 cells after 48 hrs by SRB staining method; details: U-251, 48 h
[9] = system: Malme-3M; experiment: Growth inhibition of human MALME-3M cells after 48 hrs by SRB staining method
[10] = system: SK-MEL-2; experiment: Growth inhibition of human SK-MEL-2 cells after 48 hrs by SRB staining method; details: SK-MEL-2, 48 h
[11] = system: UACC-257; experiment: Growth inhibition of human UACC257 cells after 48 hrs by SRB staining method; details: UACC-257, 48 h
[12] = system: UACC-62; experiment: Growth inhibition of human UACC62 cells after 48 hrs by SRB staining method; details: UACC-62, 48 h
[13] = system: IGROV-1; experiment: Growth inhibition of human IGROV1 cells after 48 hrs by SRB staining method; details: IGROV-1, 48 h
[14] = system: OVCAR-5; experiment: Growth inhibition of human OVCAR5 cells after 48 hrs by SRB staining method; details: OVCAR-5, 48 h
[15] = system: OVCAR-8; experiment: Growth inhibition of human OVCAR8 cells after 48 hrs by SRB staining method; details: OVCAR-8, 48 h
[16] = system: SK-OV-3; experiment: Growth inhibition of human SKOV3 cells after 48 hrs by SRB staining method; details: SK-OV-3, 48 h
[17] = system: 786-0; experiment: Growth inhibition of human 786-0 cells after 48 hrs by SRB staining method; details: 786-0, 48 h
[18] = system: ACHN; experiment: Growth inhibition of human ACHN cells after 48 hrs by SRB staining method
[19] = system: CAKI-1; experiment: Growth inhibition of human CAKI1 cells after 48 hrs by SRB staining method; details: CAKI-1, 48 h
[20] = system: RXF 393; experiment: Growth inhibition of human RXF393 cells after 48 hrs by SRB staining method; details: RXF 393, 48 h
[21] = system: UO-31; experiment: Growth inhibition of human UO31 cells after 48 hrs by SRB staining method; details: UO-31, 48 h
[22] = system: PC-3; experiment: Growth inhibition of human PC3 cells after 48 hrs by SRB staining method; details: PC-3, 48 h
[23] = system: DU-145; experiment: Growth inhibition of human DU145 cells after 48 hrs by SRB staining method; details: DU-145, 48 h
[24] = system: MCF7; experiment: Growth inhibition of human MCF7 cells after 48 hrs by SRB staining method; details: MCF7, 48 h
[25] = system: NCI/ADR-RES; experiment: Growth inhibition of human NCI/ADR-RES cells after 48 hrs by SRB staining method
[26] = system: MDA-MB-231; experiment: Growth inhibition of human MDA-MB-231 cells after 48 hrs by SRB staining method; details: MDA-MB-231, 48 h
[27] = system: BT-549; experiment: Growth inhibition of human BT549 cells after 48 hrs by SRB staining method; details: BT-549, 48 h
[28] = system: T47D; experiment: Growth inhibition of human T47D cells after 48 hrs by SRB staining method
[29] = system: SF-268; experiment: Growth inhibition of human SF268 cells after 48 hrs by SRB staining method; details: SF-268, 48 h
[30] = system: HL-60; experiment: Growth inhibition of human HL60 cells after 48 hrs by SRB staining method; details: HL-60, 48 h
[31] = read-out: pLC50 (the source's name) (converted)

Q: Which GI50 [1] does the source give for `CCOC(=O)CCC(NC(=O)c1ccc(Nc2nc3cc(N)cc(N)c3nc2-c2ccccc2)cc1)C(=O)OCC` (centres undefined) here?
A: 26.9 µM

Q: What about the LC50 [1] of the same molecule?
A: > 100 µM

Q: And the TGI ([1]; read-out: pTGI (converted))?
A: 55 µM

Q: What about the GI50 [2] of the same molecule?
A: 18.6 µM

Q: And the LC50 [2]?
A: > 100 µM

Q: What about the TGI ([2]; read-out: pTGI (converted)) of the same molecule?
A: 55 µM

Q: What about the GI50 [3] of the same molecule?
A: 8.51 µM

Q: What about the LC50 (concentration killing 50% of cells) [3] of the same molecule?
A: > 100 µM

Q: And the TGI ([3]; read-out: pTGI (converted))?
A: 47.9 µM

Q: And the GI50 [4]?
A: 8.91 µM

Q: What about the LC50 [4] of the same molecule?
A: > 100 µM

Q: What about the TGI ([4]; read-out: pTGI (converted)) of the same molecule?
A: > 100 µM

Q: What about the GI50 [5] of the same molecule?
A: 23.4 µM

Q: What about the LC50 [5] of the same molecule?
A: > 100 µM

Q: And the TGI ([5]; read-out: pTGI (converted))?
A: > 100 µM

Q: What about the GI50 [6] of the same molecule?
A: 17.8 µM

Q: And the LC50 [6]?
A: > 100 µM

Q: What about the TGI ([6]; read-out: pTGI (converted)) of the same molecule?
A: 43.7 µM

Q: And the GI50 [7]?
A: 21.4 µM

Q: And the LC50 [7]?
A: > 100 µM

Q: And the TGI ([7]; read-out: pTGI (converted))?
A: > 100 µM

Q: What about the GI50 [8] of the same molecule?
A: 20 µM

Q: And the LC50 (50% lethal concentration) [8]?
A: 95.5 µM

Q: What about the TGI ([8]; read-out: pTGI (converted)) of the same molecule?
A: 43.7 µM

Q: And the GI50 [9]?
A: 2.82 µM

Q: And the LC50 [9]?
A: > 100 µM

Q: And the TGI ([9]; read-out: pTGI (converted))?
A: 6.17 µM

Q: What about the GI50 [10] of the same molecule?
A: 7.76 µM

Q: And the LC50 [10]?
A: > 100 µM

Q: And the TGI ([10]; read-out: pTGI (converted))?
A: 74.1 µM

Q: What about the GI50 [11] of the same molecule?
A: 2 µM

Q: And the LC50 [11]?
A: > 100 µM

Q: What about the TGI ([11]; read-out: pTGI (converted)) of the same molecule?
A: 4.9 µM

Q: And the GI50 [12]?
A: 3.55 µM

Q: What about the LC50 [12] of the same molecule?
A: 64.6 µM

Q: And the TGI ([12]; read-out: pTGI (converted))?
A: 14.5 µM

Q: What about the GI50 [13] of the same molecule?
A: 6.31 µM

Q: And the LC50 [13]?
A: > 100 µM

Q: What about the TGI ([13]; read-out: pTGI (converted)) of the same molecule?
A: 89.1 µM

Q: And the GI50 [14]?
A: 34.7 µM

Q: And the LC50 [14]?
A: > 100 µM

Q: What about the TGI ([14]; read-out: pTGI (converted)) of the same molecule?
A: 87.1 µM

Q: And the GI50 [15]?
A: 33.9 µM

Q: And the CC50 [15, 31]?
A: > 100 µM

Q: And the TGI ([15]; read-out: pTGI (converted))?
A: > 100 µM

Q: And the GI50 [16]?
A: 21.9 µM

Q: What about the CC50 [16, 31] of the same molecule?
A: > 100 µM

Q: And the TGI ([16]; read-out: pTGI (converted))?
A: 47.9 µM

Q: And the GI50 [17]?
A: 17.8 µM

Q: What about the CC50 [17, 31] of the same molecule?
A: 77.6 µM

Q: What about the TGI ([17]; read-out: pTGI (converted)) of the same molecule?
A: 37.2 µM

Q: What about the GI50 [18] of the same molecule?
A: 12.9 µM

Q: What about the CC50 [18, 31] of the same molecule?
A: > 100 µM

Q: And the TGI ([18]; read-out: pTGI (converted))?
A: 46.8 µM

Q: What about the GI50 [19] of the same molecule?
A: 27.5 µM

Q: What about the CC50 [19, 31] of the same molecule?
A: > 100 µM

Q: What about the TGI ([19]; read-out: pTGI (converted)) of the same molecule?
A: > 100 µM

Q: And the GI50 [20]?
A: 24.5 µM

Q: What about the TGI ([20]; read-out: pTGI (converted)) of the same molecule?
A: 85.1 µM

Q: And the GI50 [21]?
A: 21.9 µM

Q: What about the CC50 [21, 31] of the same molecule?
A: > 100 µM

Q: What about the TGI ([21]; read-out: pTGI (converted)) of the same molecule?
A: 75.9 µM

Q: What about the GI50 [22] of the same molecule?
A: 21.4 µM

Q: What about the CC50 [22, 31] of the same molecule?
A: > 100 µM

Q: What about the TGI ([22]; read-out: pTGI (converted)) of the same molecule?
A: 91.2 µM

Q: And the GI50 [23]?
A: 44.7 µM

Q: What about the CC50 [23, 31] of the same molecule?
A: > 100 µM

Q: What about the TGI ([23]; read-out: pTGI (converted)) of the same molecule?
A: > 100 µM

Q: What about the GI50 [24] of the same molecule?
A: 29.5 µM

Q: And the CC50 [24, 31]?
A: > 100 µM

Q: And the TGI ([24]; read-out: pTGI (converted))?
A: > 100 µM

Q: What about the GI50 [25] of the same molecule?
A: 19.5 µM

Q: What about the CC50 [25, 31] of the same molecule?
A: > 100 µM

Q: What about the TGI ([25]; read-out: pTGI (converted)) of the same molecule?
A: 63.1 µM

Q: What about the GI50 [26] of the same molecule?
A: 8.91 µM

Q: What about the CC50 [26, 31] of the same molecule?
A: 81.3 µM

Q: And the TGI ([26]; read-out: pTGI (converted))?
A: 28.2 µM

Q: And the GI50 [27]?
A: 41.7 µM

Q: What about the CC50 [27, 31] of the same molecule?
A: > 100 µM

Q: What about the TGI ([27]; read-out: pTGI (converted)) of the same molecule?
A: > 100 µM

Q: What about the GI50 [28] of the same molecule?
A: 1.66 µM

Q: What about the CC50 [28, 31] of the same molecule?
A: > 100 µM

Q: And the TGI ([28]; read-out: pTGI (converted))?
A: 4.9 µM

Q: And the GI50 [29]?
A: 23.4 µM

Q: And the CC50 [29, 31]?
A: > 100 µM

Q: What about the TGI ([29]; read-out: pTGI (converted)) of the same molecule?
A: > 100 µM

Q: What about the GI50 [30] of the same molecule?
A: 9.55 µM

Q: What about the CC50 [30, 31] of the same molecule?
A: > 100 µM

Q: What about the TGI ([30]; read-out: pTGI (converted)) of the same molecule?
A: 51.3 µM

Source: ChEMBL document CHEMBL1149774, “Synthesis of N-(5,7-diamino-3-phenyl-quinoxalin-2-yl)-3,4,5-substituted anilines and N-[4[(5,7-diamino-3-phenylquinoxalin-2-yl)amino]benzoyl]-l-glutamic acid diethyl ester: evaluation of in vitro anti-cancer and anti-folate activities” (Eur J Med Chem, 2008)
